Laboratory results from article PMC5029964 (Journal of the American Chemical Society, 2016).
Entries after “also recorded” stand apart in the source; their conditions may differ.

Key:
[1] = target: T1, PchA (Pseudomonas aeruginosa, UniProt Q51508); details: cited from earlier work
T1 sequence (Q51508 1-476): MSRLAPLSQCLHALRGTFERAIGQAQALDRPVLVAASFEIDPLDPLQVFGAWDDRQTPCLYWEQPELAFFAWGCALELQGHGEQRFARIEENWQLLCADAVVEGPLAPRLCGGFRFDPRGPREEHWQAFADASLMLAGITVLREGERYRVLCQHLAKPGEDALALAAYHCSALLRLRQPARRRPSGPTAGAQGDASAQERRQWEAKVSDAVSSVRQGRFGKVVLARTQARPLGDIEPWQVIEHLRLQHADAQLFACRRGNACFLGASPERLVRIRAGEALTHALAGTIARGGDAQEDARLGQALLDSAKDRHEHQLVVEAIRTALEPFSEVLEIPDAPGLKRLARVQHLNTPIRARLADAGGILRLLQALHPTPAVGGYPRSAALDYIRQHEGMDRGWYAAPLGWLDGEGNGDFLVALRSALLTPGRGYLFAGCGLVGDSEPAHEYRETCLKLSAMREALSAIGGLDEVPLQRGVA

[2] = target: Fur; details: read-out: Kd for Fe(II) binding; cited from earlier work
[3] = target: Irp9 (Yersinia enterocolitica, UniProt Q9X9I8); assay type: biochemical; details: saturating chorismate 20 μM; magnesium 0–20 mM
[4] = target: T1, PchA; assay type: biochemical
[5] = target: T2, PchB (Pseudomonas aeruginosa, UniProt Q51507); assay: Steady-state PchB lyase activity; assay type: biochemical
T2 sequence (Q51507 1-101): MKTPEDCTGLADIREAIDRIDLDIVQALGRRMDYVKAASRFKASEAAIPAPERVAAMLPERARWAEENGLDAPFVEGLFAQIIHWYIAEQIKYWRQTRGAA

[6] = target: T3, EntC (Escherichia coli, UniProt P0AEJ2); assay: Steady-state chorismate isomerase activity, PchB-coupled salicylate fluorescence; assay type: biochemical
T3 sequence (P0AEJ2 1-391): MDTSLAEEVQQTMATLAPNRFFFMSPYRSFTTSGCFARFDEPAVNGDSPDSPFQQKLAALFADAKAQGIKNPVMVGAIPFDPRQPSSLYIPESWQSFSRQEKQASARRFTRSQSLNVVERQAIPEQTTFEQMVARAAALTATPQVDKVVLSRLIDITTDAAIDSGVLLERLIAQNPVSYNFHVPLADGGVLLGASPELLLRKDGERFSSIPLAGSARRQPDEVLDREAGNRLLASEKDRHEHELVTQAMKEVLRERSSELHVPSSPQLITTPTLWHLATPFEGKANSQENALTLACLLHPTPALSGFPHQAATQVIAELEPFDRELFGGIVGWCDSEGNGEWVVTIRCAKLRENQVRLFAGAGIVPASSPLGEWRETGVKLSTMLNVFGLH

[7] = tested on: MST enzymes (PchA, EntC, Irp9); assay: Ligand binding rates by stopped-flow intrinsic fluorescence; details: all three enzymes
[8] = target: PchA, EntC, and Irp9; assay: Dissociation constants by intrinsic fluorescence; assay type: binding; details: read-out: Kd of E·Mg complexes (range over all three enzymes)

O=S(=O)([O-])[O-].O=S(=O)([O-])[O-].[Fe+2].[NH4+].[NH4+] [Fe(II), ferrous ammonium sulfate]
effect on PchA activity ([1]; 100 μM): did not alter PchA activity
Kd [2]: 1200 nM

N[C@@H](CS)C(=O)O [cysteine]
feedback inhibition of PchA [1]: no inhibition

[Cl-].[Cl-].[Mg+2] [magnesium, magnesium chloride]
magnesium inhibition in the steady state (shape of magnesium dependence) [3]: normal hyperbolic shape; also recorded: did not exhibit the same inhibition
magnesium concentration at which maximal velocity was observed [4]: approximately 0.5 mM
magnesium concentrations at which inhibition is noted ([4]; steady state): over 0.5 mM
binding of and inhibition by magnesium [5]: does not bind and is not inhibited
magnesium concentration at which maximal velocity was observed ([6]; saturating chorismate 200 μM, magnesium 0–20 mM): approximately 0.5 mM
magnesium concentrations at which inhibition is noted ([6]; steady state): over 0.5 mM
observed rate constant of ligand binding (bound from ∼1.0 ms dead time) ([7]; binding complete within stopped-flow dead time, 25 °C): greater than 1600 s^–1
association rate constants (order of magnitude) ([7]; suggested from dead-time bound): ~10^8 M^–1 s^–1
Kd [8]: 130 to 190 µM

CN1[C@@H]([C@H]2CSC(c3ccccc3O)=N2)SC[C@H]1C(=O)O [pyochelin]
feedback inhibition of PchA [1]: no inhibition
